Source: PMC5786306, “An AKAP-Lbc-RhoA interaction inhibitor promotes the translocation of aquaporin-2 to the plasma membrane of renal collecting duct principal cells” (PLoS ONE, 2018)

What was measured:
[1] = target: T1, AKAP-Lbc/DHPH-induced RhoA activation (Homo sapiens, UniProt P61586); experiment: Guanine nucleotide exchange (GEF) assay with mant-GTP (screen and secondary assays); type: biochemical
T1 construct: AKAP-Lbc/DHPH (aa 1923–2336 of human AKAP-Lbc; NP_006729.4, NCBI); made in house; host or cells: E. coli Rosetta (DE3)
Protocol: Fluorescence was recorded for 15 min in a 384-well plate in a microplate reader (Tecan, Safire; Durham, US) at 440 nm (360 nm excitation wavelength).
For all dispensing and washing steps an EL406 washer/dispenser combination (BioTek Instruments, Bad Friedrichshall, Germany) was used. The screen was performed in a 384-well plate format. […] Z score describes the distance of a sample signal to the mean of all other samples on the plate in units of standard deviation. […] Compound identity and purity of samples used in this secondary screen were validated by mass spectrometric analysis.
The DHPH domain of the RhoA-specific guanine nucleotide exchange factor (GEF) AKAP-Lbc and RhoA were generated as recombinant proteins. The DHPH domain-catalyzed exchange of GDP for the fluorescent mant-GTP was monitored at the emission wavelength of RhoA-bound mant-GTP at 440 nm. (B) The fluorescence signal intensity changes were determined for all samples including positive and negative controls and percent inhibitions calculated based on the controls.

[2] = system: RhoA activation by other RhoGEFs (p63RhoGEF, Duet, Trio, LARG, Ost1, PDZRhoGEF and others) in HEK293 cells; experiment: SRE luciferase reporter assay, other RhoGEFs expressed; type: cell-based, human; conditions: Scaff10 50 μM
Protocol: Luciferase reporter gene assays were performed with the Dual Luciferase Reporter Assay System (Promega) according to manufactures protocol and as previously reported. In brief, HEK293 cells were seeded and co-transfected with the indicated plasmids together with pSRE.L reporter plasmid encoding firefly luciferase (kindly provided from Dr J. Mao and Dr. D. Wu, Rochester, NY) and pRL-TK control vector (Promega, Mannheim, Germany) encoding renilla luciferase. The transfected cells were further cultured in DMEM with 0.5% FCS for 24 h, lysed with passive lysis buffer (Promega). Luciferase activities was measured an Envision Instrument (Perkin Elmer, Rodgau, Germany) in white 96-well plates. […] In Western blots, the protein was detected with primary polyclonal antibody (rabbit; Gramsch, 1:1000). […] AKAP-Lbc was detected with a specific anti-AKAP-Lbc antibody (Abcam; #ab99377; 1:1000). […]
Fig 7 Scaff10-8 inhibits the AKAP-Lbc-mediated activation of RhoA in cells. […] Statistically significant differences were determined applying one-way ANOVA with posthoc Bonferroni. […]
in luciferase activity induced by other GEFs. n=3; statistically significant differences were not found, as confirmed by statistical analysis using ANOVA. […] The fraction of active RhoA was determined using Rhotekin pulldown assays as described. […]

MCD4 cells = experiment: Uptake into cells by mass spectrometry; type: in vitro ADME, mouse; conditions: data not shown
[3] = system: AQP2 insertion into the plasma membrane of IMCD cells; experiment: Biotinylation of cell surface proteins; type: cell-based, rat; conditions: Scaff10-8 30 μM, 1 or 24 h, forskolin 30 μM, 30 min
Protocol: The assay was performed according to Bogum et al.. IMCD cells were treated with Scaff10-8 at a concentration of 30 μM for 1 or 24 h (0.3% DMSO final concentration). DMSO (0.3%) was used as a control for the 24 h of incubation. Cells were stimulated with forskolin (30 min, 30 μM). Cells were washed twice with ice-cold PBS and incubated with biotinylation buffer (500 μg Biotin per well; 10 mM triethanolamine; 150 mM NaCl; 1 mM MgCl2; 0.1 mM CaCl2; pH 8.0) for 60 min at 4°C. After two washing steps with biotinylation buffer, cells were incubated for 10 min with quenching buffer (50 mM NH4Cl in PBS) at 4°C. Lysates were prepared using biotinylation lysis buffer 1 (SLB; 0.5% Triton X-100; 0.2% BSA; Complete mini EDTA-free). Lysates were sonicated and incubated for 20 min at 37°C. Cell debris was removed by centrifugation (30 min, 15,000x g, 4°C). Lysates were incubated with 80 μl streptavidin agarose beads at 4°C overnight. Beads were washed three times with biotinylation lysis buffer 1 and 2 (SLB; 0.5% Triton X-100; Complete mini EDTA-free). Proteins were eluted using sample buffer and analyzed by Western blotting.
(A) IMCD cells were treated with either compound (30 μM) or DMSO for 1 or 24 h. Membrane proteins were biotinylated followed by precipitation with streptavidin agarose beads. […] (B) Signals from A were quantified by densitometric analysis. […]

T1 sequence (P61586 whole entry, the tested form may be a part): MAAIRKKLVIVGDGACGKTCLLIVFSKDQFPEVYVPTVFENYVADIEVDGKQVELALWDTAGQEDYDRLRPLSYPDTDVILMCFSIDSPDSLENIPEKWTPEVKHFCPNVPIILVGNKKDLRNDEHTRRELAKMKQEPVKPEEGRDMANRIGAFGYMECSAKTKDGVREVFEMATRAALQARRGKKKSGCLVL

| Structure (SMILES) | IC50 [1] [µM] | ResidualPercentActivity ([1]; Suppl. Tab. 2, screening data) [%] | z_score ([1]; Suppl. Tab. 2, screening data) | luciferase activity induced by other GEFs [2] | uptake into cells (MCD4 cells) | insertion of AQP2 into the plasma membrane [3] |
| --- | --- | --- | --- | --- | --- | --- |
| COc1ccc(-c2coc3cc4oc(=O)c(C)c(C)c4cc23)cc1 [Scaff10, 3-(4-Methoxyphenyl)-5,6-dimethyl-furo[3,2-g]chromen-7-one] | 26 | -9.0 | -9.0 | does not affect |  |  |
| COc1ccc(-c2coc3cc4oc(=O)c(CCC(=O)O)c(C)c4cc23)cc1 [Scaff10-8, 3-[3-(4-Methoxyphenyl)-5-methyl-7-oxo-furo[3,2-g]chromen-6-yl] propanoic acid] |  |  |  |  | confirmed the uptake | does not promote the insertion of AQP2 |
